In article PMC8854719, “Phase 1A/1B dose-escalation and -expansion study to evaluate the safety, pharmacokinetics, food effects and antitumor activity of pamiparib in advanced solid tumours” (British Journal of Cancer, 2021):

How the values were obtained:
[1] = Food-effects cohort: PK fasted vs high-fat meal; format: in vivo, human
Description: Patients in the food-effects cohort received a single dose of pamiparib 60 mg (based on the RP2D) on day 1 of cycle 1, followed by a 5-day washout; patients then received another single dose of 60 mg on day 6. Seven patients in sequence 1 (fast followed by fed) received pamiparib after a ≥ 10-h fast on day 1 and after consuming a standard high-fat meal (described in the Supplemental Appendix) 30 min prior to drug administration on day 6. Six patients in sequence 2 (fed followed by fast) received pamiparib after a high-fat meal on day 1 and after a ≥ 10-h fast on Day 6. From day 8 of cycle 1 onward, patients received 60-mg BID treatment.
Pamiparib in plasma was measured using a validated liquid chromatography-tandem–mass spectrometry assay with a lower limit of quantification of 1.0 ng/mL. The collection schedule for blood samples used to assess the PK profile is presented in the Supplemental Appendix. Summary PK parameters, including area under the concentration-time curve from time 0 to 9 h (AUC0-9) or infinity (AUC0-inf), maximal plasma concentration (Cmax) and time to maximal plasma concentration (Tmax), were estimated. The pharmacodynamic (PD) activity of pamiparib was explored through the evaluation of poly(ADP-ribose [PAR]) formation in peripheral blood mononuclear cells (PBMCs) after pamiparib administration. The schedule for blood sample collection (PK and PBMCs) and additional assessment information for PAR levels in PBMCs and pharmacodynamic activity is presented in the Supplemental Appendix. Antitumor activity was assessed by radiographic imaging (computed tomography or magnetic resonance imaging) during screening, within 28 days of first pamiparib dose, every 6 weeks in the first 12 months and every 9 weeks thereafter.
An example of a recommended United States Food and Drug Administration (US FDA) standard high-fat meal comprises two eggs fried in butter, two strips of bacon, two slices of toast with butter, 4 ounces of hash brown potatoes, and 8 ounces of whole milk.
The PK profile of pamiparib was assessed based on blood samples collected at predose and 0.5, 1, 2, 4, 6, 9, 24, and 48 hours postdose on Days 1-3 and then at predose and 0.5, 1, 2, 4, 6, and 9 hours postdose on Day 17 of Cycle 1 in Phase 1A. Sparse PK samples were collected in phase 1B Part A. The food effect on the PK of pamiparib was assessed based on blood samples collected at predose and 0.5, 1, 2, 4, 7, 24, and 48 hours postdose on Day 1 and Day 6 of Cycle 1 in phase 1B Part B.

[2] = design: method as in PMID 33128299; conditions: humans; current study and Phase 1 study in ovarian cancer; cited from earlier work
[3] = test system: BRCA1-mutant breast cancer xenograft model; design: method as in PMID 32652442; conditions: cited from earlier work
[4] = test system: metastatic castration-resistant prostate cancer (mCRPC); test: PCWG2 response and PSA progression; format: in vivo, human
Description: Tumour response was evaluated by RECIST v1.1. For patients with ovarian cancer, tumour response was assessed per RECIST v1.1 and by Gynecologic Cancer Intergroup (GCIG) CA-125 criteria. Tumour response for patients with prostate cancer was assessed by Prostate Cancer Clinical Trials Working Group 2 (PCWG2) criteria. Objective response rate (ORR) was defined as the proportion of patients achieving a confirmed complete response (CR) or partial response (PR) on study treatment. Blood tumour antigens (e.g., carcinoembryonic antigen for colorectal cancer, CA-125 for ovarian cancer and prostate-specific antigen [PSA] for mCRPC) were assessed during screening, every 6 weeks after the first pamiparib dose in the first 12 months, and every 9 weeks thereafter.
The safety population comprised all patients in the dose-escalation and dose-expansion phases who received at least one dose of pamiparib (Supplementary Table S2). Patients in the safety analysis set for whom valid pamiparib PK parameters were estimated and for whom evaluable PD results were available represented the PK population and the PD population, respectively. The efficacy-evaluable population included patients in the safety analysis set who had at least one evaluable postbaseline tumour assessment or those who discontinued due to clinical disease progression or early death before tumour assessment could be performed. The EOC efficacy-evaluable population was a subset of the overall efficacy-evaluable population that included patients with EOC from both the dose-escalation and dose-expansion phases. Patients in the dose-expansion phase without measurable disease at baseline per RECIST v1.1 were excluded from the efficacy-evaluable population.

[5] = single 60 mg dose, high-fat breakfast vs fasted

With `C[C@]12CCCN1CC1=NNC(=O)c3cc(F)cc4[nH]c2c1c34` [pamiparib] the “Food effects on pharmacokinetics (in words)” value ([1]; 60 mg single dose) was “no food effects”, the Tmax ([1]; human, plasma, oral, single 60 mg dose with a high-fat breakfast, read-out: Median Tmax) was 7 h and the “Reduction of AUC0-inf with food” value [1, 5] was 12%. The “Reduction of Cmax with food” value [1, 5] was 41%, the Bioavailability [2] was “high, with near-complete absorption” and the “Efficacy (tumour regression) compared with olaparib” value [3] was 16 fold. For the same compound, the “Median time to PSA progression” value ([4]; PSA-evaluable population (n=6)) was 4.2 months, the PSA progression rate ([4]; PSA-evaluable population (n=6)) was 33.3% and the “Responders per PCWG2 criteria (in words)” value ([4]; mCRPC, phase 1B Part A) was “No patients with mCRPC in phase 1B Part A were considered responders”.
